In US20200270309A1, “MALEIMIDE GROUP-MODIFIED ANGIOGENESIS INHIBITOR HM-1 AND USE THEREOF” (NANJING ANJI BIOLOGICAL TECHNOLOGY CO., LTD, priority 2017, published 2020):
Marks after values point to notes of the source that are not given here. Peptide text beside a SMILES is read from it. * marks the point of attachment. X84 = O=C1C=CC(=O)N1c1ccccc1CCCCCCCCCCCCC(=O)*; X68 = O=C1C=CC(=O)N1c1ccccc1CCCCCCCCCCCC(=O)*; X79 = O=C1C=CC(=O)N1c1cccc(CCC(=O)*)c1; X75 = O=C1C=CC(=O)N1c1cccc(CC(=O)*)c1

Columns and labels:
HUVECs = assay: Transwell migration inhibition on HUVECs; format: cell-based, human; conditions: for Inhibition rate (%): HUVEC migration vs blank control; for Cell migration number (Mean ± SD): HUVECs, transwell, 24 h
[1] = test system: choroidal neovascularization; assay: Choroidal neovascularization in rats (laser photocoagulation, FFA); format: in vivo; conditions: BN rats
Description: 6-8 weeks male BN rats were fully anesthetized by intraperitoneal injection of 846 compound anesthetic with a concentration of 0.5 mL/kg. Compound tropicamide eye drops were used once 5 min before laser photocoagulation to fully dilate the pupils of both eyes. The animals were fixed and subjected to krypton laser photocoagulation equidistantly around an optic disc with the aid of a −53.00D corneal contact lens at a distance of 2PD from the optic disc. A total of 8 photocoagulation spots were obtained. The laser wavelength was 647.1 nm, the power was 350 mW, and the diameter and time of the photocoagulation spots were 50 μm and 0.05 s respectively. Fundus photography was performed immediately after photocoagulation. FFA, histopathology and transmission electron microscopy were performed on the days 3, 7, 14, 21 and 28 after photocoagulation respectively.
Through fundus photography and FFA examination, it was confirmed that the fluorescein leakage of the photocoagulation spot reached its peak on day 21 after photocoagulation. At the same time, histopathological examination was carried out.
Rats with successful modeling were randomly grouped, with 5 rats in each group. The groups were marked as a negative control group and X1-X90 treatment groups respectively. The rats were injected with normal saline and X1-X90 (the doses of X1-X90 were each 0.05 μM) in the vitreous chamber once a day for 1 week. FFA examination was carried out 3 days, 7 days, 14 days and 28 days after administration.

[2] = test system: IL-1β production by mouse peritoneal macrophages; assay: IL-1β production by mouse peritoneal macrophages (ELISA); format: cell-based; conditions: for Inhibition rate: IL-1β production, vs model group; for IL-1β: mouse peritoneal macrophages, 48 h, ELISA
How it was run: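 Peptides tested at three concentration levels on adherent peritoneal macrophages harvested from mice 3 days after i.p. 6% starch broth, plated at 2×10^6 cells/mL. After 48 h culture with Dex as reference, IL-1β in supernatants was quantified.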

[3] = test system: carrageenan-induced toe swelling; assay: Carrageenan-induced toe swelling in rats; format: in vivo; conditions: SD rats; for Swelling degree 1 h: 1 h after carrageenan; for Swelling degree 3 h: 3 h after carrageenan; for Swelling degree 5 h: 5 h after carrageenan; for Swelling degree 7 h: 7 h after carrageenan
How it was run: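 Paw swelling, in mL, is the post-inflammation minus pre-inflammation volume of the right hind foot, read as overflow liquid when immersed to a pen-marked joint. Treatment was daily injection over 3 d; model group received saline of the same volume.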

[4] = test system: xylene-induced ear swelling; assay: Xylene-induced mouse ear swelling; format: in vivo; conditions: Kunming mice, injected once a day for 5 days; for Swelling degree / Swelling degree (mg): right minus left ear piece weight 2 h after xylene; for Inhibition rate (%): xylene-induced ear swelling
How it was run: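 Ear pieces punched and weighed 2 h after xylene (0.05 mL, right ear only; left ear as normal) gave swelling degree (right − left weight) and swelling rate (degree/left weight ×100%). Kunming mice received injections daily for 5 consecutive days, xylene applied 1 h after final dose.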

[5] = day 3 after administration, total light spot number was 297, 0.05 μM in the vitreous chamber once a day for 1 week
[6] = day 7 after administration, total light spot number was 186, 0.05 μM in the vitreous chamber once a day for 1 week
[7] = day 14 after administration, total light spot number was 137, 0.05 μM in the vitreous chamber once a day for 1 week
[8] = day 28 after administration, total light spot number was 69, 0.05 μM in the vitreous chamber once a day for 1 week

| SMILES | Inhibition rate (%) (HUVECs; dose 0.05 μM) | Inhibition rate (%) (HUVECs; dose 0.1 μM) | Inhibition rate (%) (HUVECs; dose 0.2 μM) | CNV Incidence (%) [1, 5] [%] | Leakage Light spot number [1, 5] | CNV Incidence (%) [1, 6] [%] | Leakage Light spot number [1, 6] | CNV Incidence (%) [1, 7] [%] | Leakage Light spot number [1, 7] | CNV Incidence (%) [1, 8] [%] | Leakage Light spot number [1, 8] | Inhibition rate ([2]; dose 0.05 μM) [%] | IL-1β ([2]; dose 0.05 μM) [pg/mL] | Inhibition rate ([2]; dose 0.1 μM) [%] | IL-1β ([2]; dose 0.1 μM) [pg/mL] | Inhibition rate ([2]; dose 0.2 μM) [%] | IL-1β ([2]; dose 0.2 μM) [pg/mL] | Swelling degree 1 h ([3]; 2.0 mg/kg once a day for 3 d) [mg] | Swelling degree 3 h ([3]; 2.0 mg/kg once a day for 3 d) [mg] | Swelling degree 5 h ([3]; 2.0 mg/kg once a day for 3 d) [mg] | other results |
| --- | --- | --- | --- | --- | --- | --- | --- | --- | --- | --- | --- | --- | --- | --- | --- | --- | --- | --- | --- | --- | --- |
| C[C@H](NC(=O)CNC(=O)[C@H](CCCNC(=N)N)NC(=O)CCCCCCCCCCCc1ccccc1N1C(=O)C=CC1=O)C(=O)N[C@@H](CC(=O)O)C(=O)N[C@@H](CCCNC(=N)N)C(=O)N[C@@H](C)C(=O)NCC(=O)NCC(=O)NCC(=O)NCC(=O)N[C@@H](CCCNC(=N)N)C(=O)NCC(=O)N[C@@H](CC(=O)O)C(=O)O [X23] (X68-RGADRAGGGGRGD-OH) | 48.22 | 51.50 | 52.06 | 52.86 | 157 | 45.70 | 85 | 44.53 | 61 | 37.68 | 26 | 15.69 | 793.48 ± 19.42 | 30.92 | 650.17 ± 14.98 | 33.74 | 623.64 ± 12.33 | 0.28 ± 0.17 | 0.34 ± 0.19 | 0.37 ± 0.11 | Swelling degree 7 h ([3]; 2.0 mg/kg once a day for 3 d): 0.35 ± 0.18 mg; Swelling degree 1 h ([3]; 4.0 mg/kg once a day for 3 d): 0.26 ± 0.16 mg; Swelling degree 3 h ([3]; 4.0 mg/kg once a day for 3 d): 0.34 ± 0.19 mg; Swelling degree 5 h ([3]; 4.0 mg/kg once a day for 3 d): 0.38 ± 0.13 mg; Swelling degree 7 h ([3]; 4.0 mg/kg once a day for 3 d): 0.34 ± 0.17 mg; Swelling degree ([4]; dose 2 mg/kg): 5.64 ± 0.84 mg; Inhibition rate (%) ([4]; dose 2 mg/kg): 9.47%; Swelling degree (mg) ([4]; dose 4 mg/kg): 3.63 ± 0.51** mg; Inhibition rate (%) ([4]; dose 4 mg/kg): 41.73%; Swelling degree (mg) ([4]; dose 8 mg/kg): 3.47 ± 0.06** mg; Inhibition rate (%) ([4]; dose 8 mg/kg): 44.30% |
| C[C@H](NC(=O)CNC(=O)[C@H](CCCNC(=N)N)NC(=O)CCCCCCCCCCCCc1ccccc1N1C(=O)C=CC1=O)C(=O)N[C@@H](CC(=O)O)C(=O)N[C@@H](CCCNC(=N)N)C(=O)N[C@@H](C)C(=O)NCC(=O)NCC(=O)NCC(=O)NCC(=O)N[C@@H](CCCNC(=N)N)C(=O)NCC(=O)N[C@@H](CC(=O)O)C(=O)O [X24] (X84-RGADRAGGGGRGD-OH) | 49.57 | 49.95 | 51.01 | 54.21 | 161 | 49.46 | 92 | 45.99 | 63 | 44.93 | 31 | 29.88 | 659.97 ± 17.07 | 31.39 | 645.67 ± 11.87 | 41.69 | 548.82 ± 19.58 | 0.24 ± 0.16 | 0.34 ± 0.18 | 0.43 ± 0.12 | Cell migration number (Mean ± SD) (HUVECs; dose 0.05 μM): 540.49 ± 60.98; Cell migration number (Mean ± SD) (HUVECs; dose 0.1 μM): 536.51 ± 42.41; Cell migration number (Mean ± SD) (HUVECs; dose 0.2 μM): 525.06 ± 53.33; Swelling degree 7 h ([3]; 2.0 mg/kg once a day for 3 d): 0.38 ± 0.13 mg; Swelling degree 1 h ([3]; 4.0 mg/kg once a day for 3 d): 0.23 ± 0.17 mg; Swelling degree 3 h ([3]; 4.0 mg/kg once a day for 3 d): 0.35 ± 0.13 mg; Swelling degree 5 h ([3]; 4.0 mg/kg once a day for 3 d): 0.38 ± 0.16 mg; Swelling degree 7 h ([3]; 4.0 mg/kg once a day for 3 d): 0.32 ± 0.12 mg; Swelling degree ([4]; dose 2 mg/kg): 5.25 ± 0.06 mg; Inhibition rate (%) ([4]; dose 2 mg/kg): 15.73%; Swelling degree (mg) ([4]; dose 4 mg/kg): 4.98 ± 0.19* mg; Inhibition rate (%) ([4]; dose 4 mg/kg): 20.06%; Swelling degree (mg) ([4]; dose 8 mg/kg): 4.34 ± 0.68** mg; Inhibition rate (%) ([4]; dose 8 mg/kg): 30.34% |
| C[C@H](NC(=O)CNC(=O)[C@H](CCCNC(=N)N)NC(=O)Cc1cccc(N2C(=O)C=CC2=O)c1)C(=O)N[C@@H](CC(=O)O)C(=O)N[C@@H](CCCNC(=N)N)C(=O)N[C@@H](C)C(=O)NCC(=O)NCC(=O)NCC(=O)NCC(=O)N[C@@H](CCCNC(=N)N)C(=O)NCC(=O)N[C@@H](CC(=O)O)C(=O)O [X25] (X75-RGADRAGGGGRGD-OH) | 48.06 | 52.24 | 58.00 | 51.85 | 154 | 47.31 | 88 | 43.07 | 59 | 44.93 | 31 | 20.57 | 747.54 ± 18.25 | 24.22 | 713.21 ± 19.17 | 29.89 | 659.86 ± 10.24 | 0.29 ± 0.17 | 0.38 ± 0.12 | 0.46 ± 0.18 | Cell migration number (Mean ± SD) (HUVECs; dose 0.05 μM): 556.73 ± 40.91; Cell migration number (Mean ± SD) (HUVECs; dose 0.1 μM): 511.9 ± 68.58; Cell migration number (Mean ± SD) (HUVECs; dose 0.2 μM): 450.13 ± 52.7; Swelling degree 7 h ([3]; 2.0 mg/kg once a day for 3 d): 0.34 ± 0.13 mg; Swelling degree 1 h ([3]; 4.0 mg/kg once a day for 3 d): 0.27 ± 0.15 mg; Swelling degree 3 h ([3]; 4.0 mg/kg once a day for 3 d): 0.36 ± 0.19 mg; Swelling degree 5 h ([3]; 4.0 mg/kg once a day for 3 d): 0.44 ± 0.18 mg; Swelling degree 7 h ([3]; 4.0 mg/kg once a day for 3 d): 0.33 ± 0.12 mg; Swelling degree ([4]; dose 2 mg/kg): 5.62 ± 0.64 mg; Inhibition rate (%) ([4]; dose 2 mg/kg): 9.79%; Swelling degree (mg) ([4]; dose 4 mg/kg): 4.45 ± 0.20* mg; Inhibition rate (%) ([4]; dose 4 mg/kg): 28.57%; Swelling degree (mg) ([4]; dose 8 mg/kg): 3.3 ± 0.06** mg; Inhibition rate (%) ([4]; dose 8 mg/kg): 47.03% |
| C[C@H](NC(=O)CNC(=O)[C@H](CCCNC(=N)N)NC(=O)CCc1cccc(N2C(=O)C=CC2=O)c1)C(=O)N[C@@H](CC(=O)O)C(=O)N[C@@H](CCCNC(=N)N)C(=O)N[C@@H](C)C(=O)NCC(=O)NCC(=O)NCC(=O)NCC(=O)N[C@@H](CCCNC(=N)N)C(=O)NCC(=O)N[C@@H](CC(=O)O)C(=O)O [X26] (X79-RGADRAGGGGRGD-OH) | 46.81 | 48.98 | 53.86 | 55.22 | 164 | 49.46 | 92 | 45.26 | 62 | 43.48 | 30 | 18.26 | 769.33 ± 19.82 | 21.99 | 734.20 ± 13.89 | 29.51 | 663.38 ± 11.96 | 0.28 ± 0.17 | 0.31 ± 0.18 | 0.42 ± 0.11 | Cell migration number (Mean ± SD) (HUVECs; dose 0.05 μM): 570.08 ± 49.26; Cell migration number (Mean ± SD) (HUVECs; dose 0.1 μM): 546.86 ± 60.43; Cell migration number (Mean ± SD) (HUVECs; dose 0.2 μM): 494.57 ± 48.88; Swelling degree 7 h ([3]; 2.0 mg/kg once a day for 3 d): 0.39 ± 0.12 mg; Swelling degree 1 h ([3]; 4.0 mg/kg once a day for 3 d): 0.25 ± 0.18 mg; Swelling degree 3 h ([3]; 4.0 mg/kg once a day for 3 d): 0.31 ± 0.13 mg; Swelling degree 5 h ([3]; 4.0 mg/kg once a day for 3 d): 0.40 ± 0.15 mg; Swelling degree 7 h ([3]; 4.0 mg/kg once a day for 3 d): 0.30 ± 0.16 mg; Swelling degree ([4]; dose 2 mg/kg): 5.88 ± 0.72 mg; Inhibition rate (%) ([4]; dose 2 mg/kg): 5.62%; Swelling degree ([4]; dose 4 mg/kg): 5.78 ± 0.62 mg; Inhibition rate (%) ([4]; dose 4 mg/kg): 7.22%; Swelling degree (mg) ([4]; dose 8 mg/kg): 4.54 ± 0.61** mg; Inhibition rate (%) ([4]; dose 8 mg/kg): 49.76% |
